According to patent publication US20230053540A1, “TREATMENT OF LIVER INJURY” (Massachusetts Institute of Technology, priority 2019, published 2023):

System: hepatocytes
Experiment: Seq-Well scRNA-Seq of hepatocytes after APAP overdose (signature scores, DEG vs untreated)
Format: in vivo, mouse
[1] = A48 (48 h post-APAP) vs other clusters, Wilcox
[2] = A48 (APAP 48 h) vs untreated (UT) hepatocytes

CC(=O)Nc1ccc(O)cc1 [APAP, acetaminophen]
avg_logFC Ssr3 (A24 vs untreated (UT)): 0.5218
avg_logFC Stard4 (A24 vs untreated (UT)): 0.3515
avg_logFC Steap4 (A24 vs untreated (UT)): 0.476
avg_logFC Tmed7 (A24 vs untreated (UT)): 0.3868
avg_logFC Tmem30a (A24 vs untreated (UT)): 0.3328
avg_logFC Tmem205 (A24 vs untreated (UT)): −0.4721
avg_logFC Tram1 (A24 vs untreated (UT)): 0.4111
avg_logFC Trp53inp1 (A24 vs untreated (UT)): 0.368
avg_logFC Ubc (A24 vs untreated (UT)): −0.3705
avg_logFC Ugt2a3 (A24 vs untreated (UT)): −0.3334
avg_logFC Ugt2b1 (A24 vs untreated (UT)): −0.2895
avg_logFC Ugt2b5 (A24 vs untreated (UT)): −0.5765
avg_logFC Ugt2b36 (A24 vs untreated (UT)): −0.3293
avg_logFC Uqcrq (A24 vs untreated (UT)): −0.5959
avg_logFC Uso1 (A24 vs untreated (UT)): 0.3881
avg_logFC Usp4 (A24 vs untreated (UT)): 0.3247
avg_logFC Usp9x (A24 vs untreated (UT)): 0.4076
avg_logFC Zfp683 (A24 vs untreated (UT)): −0.4214
avg_logFC mmu-mir-6236 (A24 vs untreated (UT)): 0.7875
avg_logFC mt-Atp6 (A24 vs untreated (UT)): −0.5737
avg_logFC mt-Co1 (A24 vs untreated (UT)): −1.433
avg_logFC mt-Co2 (A24 vs untreated (UT)): −1.397
avg_logFC mt-Co3 (A24 vs untreated (UT)): −1.167
avg_logFC mt-Cytb (A24 vs untreated (UT)): −1.571
avg_logFC mt-Nd1 (A24 vs untreated (UT)): −1.42
avg_logFC mt-Nd2 (A24 vs untreated (UT)): −1.242
avg_logFC mt-Nd4 (A24 vs untreated (UT)): −1.957
avg_logFC mt-Nd5 (A24 vs untreated (UT)): −1.384
avg_logFC mt-Nd6 (A24 vs untreated (UT)): −0.4779
avg_logFC mt-Rnr1 (A24 vs untreated (UT)): −0.4562
avg_logFC mt-Rnr2 (A24 vs untreated (UT)): −0.7783
avg_logFC mt-Tm (A24 vs untreated (UT)): 0.2847
avg_logFC mt-Tq (A24 vs untreated (UT)): 0.2879
avg_logFC n-R5-8s1 (A24 vs untreated (UT)): 1.253
avg_logFC Abcb4 [1]: 0.4425
avg_logFC Abcd2 [1]: 0.2813
avg_logFC Abhd14b [1]: 0.4059
avg_logFC Acad11 [1]: 0.3851
avg_logFC Agt [1]: 0.5795
avg_logFC Ahcy [1]: 0.34
avg_logFC Ahsg [1]: 0.3592
avg_logFC Aldh9a1 [1]: 0.3826
avg_logFC Aldob [1]: 0.4375
avg_logFC Ambp [1]: 0.286
avg_logFC Amy1 [1]: 0.4216
avg_logFC Angptl3 [1]: 0.6111
avg_logFC Apoa5 [1]: 0.4484
avg_logFC Apoc2 [1]: 0.8639
avg_logFC Apoc3 [1]: 0.407
avg_logFC Apoe [1]: 0.5049
avg_logFC Apoh [1]: 0.4628
avg_logFC Atp5b [1]: 0.3281
avg_logFC Atp5h [1]: 0.5978
avg_logFC Bfar [1]: 0.308
avg_logFC Bnip3 [1]: 0.462
avg_logFC Cdo1 [1]: 0.3971
avg_logFC Cebpb [1]: 0.3684
avg_logFC Ces1b [1]: 0.4829
avg_logFC Ces1c [1]: 0.5488
avg_logFC Chchd10 [1]: 0.7517
avg_logFC Cox5a [1]: 0.4197
avg_logFC Cox8a [1]: 0.552
avg_logFC Cp [1]: 0.4274
avg_logFC Cyp4a10 [1]: 0.9326
avg_logFC Cyp4a14 [1]: 1.281
avg_logFC Dbp [1]: 0.2896
avg_logFC Ddb1 [1]: 0.3544
avg_logFC Decr1 [1]: 0.5669
avg_logFC Decr2 [1]: 0.4129
avg_logFC Ech1 [1]: 0.418
avg_logFC Echs1 [1]: 0.4649
avg_logFC Ephx2 [1]: 0.3869
avg_logFC F2 [1]: 0.3952
avg_logFC F10 [1]: 0.3927
avg_logFC F12 [1]: 0.388
avg_logFC Fah [1]: 0.3913
avg_logFC Fcgrt [1]: 0.4084
avg_logFC Fkbp5 [1]: 0.2572
avg_logFC Fth1 [1]: 0.375
avg_logFC Gabarap [1]: 0.4014
avg_logFC Gc [1]: 0.2979
avg_logFC Gltscr2 [1]: 0.3432
avg_logFC Gm6484 [1]: 0.4108
avg_logFC Gm23935 [1]: 0.4738
avg_logFC Grn [1]: 0.431
avg_logFC Gstt3 [1]: 0.3384
avg_logFC Gys2 [1]: 0.4231
avg_logFC Hdac11 [1]: 0.3557
avg_logFC Herpud1 [1]: 0.6044
avg_logFC Hmgcl [1]: 0.5501
avg_logFC Hmgcs2 [1]: 0.7687
avg_logFC Hpx [1]: 0.3851
avg_logFC Hrg [1]: 0.5316
avg_logFC Hsd17b13 [1]: 0.6221
avg_logFC Hspa8 [1]: 0.4107
avg_logFC Khk [1]: 0.5202
avg_logFC Lcat [1]: 0.5053
avg_logFC Lims2 [1]: 0.3761
avg_logFC Lpin1 [1]: 0.515
avg_logFC Mat1a [1]: 0.7753
avg_logFC Mfsd2a [1]: 0.6614
avg_logFC Mlycd [1]: 0.4378
avg_logFC Ndrg2 [1]: 0.3482
avg_logFC Nr1i3 [1]: 0.4759
avg_logFC Oaf [1]: 0.5021
avg_logFC P4hb [1]: 0.2981
avg_logFC Pabpc1 [1]: 0.4782
avg_logFC Plin5 [1]: 0.3985
avg_logFC Pnpla2 [1]: 0.3465
avg_logFC Prodh2 [1]: 0.5055
avg_logFC Rbp4 [1]: 0.3942
avg_logFC Rdh7 [1]: 0.4684
avg_logFC Reep6 [1]: 0.6233
avg_logFC Retsat [1]: 0.7096
avg_logFC Rgs16 [1]: 0.4545
avg_logFC Rpl38 [1]: 0.3322
avg_logFC Scand1 [1]: 0.2707
avg_logFC Serpina3m [1]: 0.4034
avg_logFC Serpina1d [1]: 0.3053
avg_logFC Serping1 [1]: 0.5777
avg_logFC Slc25a10 [1]: 0.4313
avg_logFC Slc25a20 [1]: 0.3875
avg_logFC Slc25a47 [1]: 0.6175
avg_logFC Slc27a5 [1]: 0.4062
avg_logFC Slc37a4 [1]: 0.4461
avg_logFC Slco1a4 [1]: 0.5091
avg_logFC Snord118 [1]: 0.4771
avg_logFC St3gal5 [1]: 0.5549
avg_logFC Sult1a1 [1]: 0.4827
avg_logFC Syvn1 [1]: 0.3041
avg_logFC Tcea3 [1]: 0.3938
avg_logFC Tef [1]: 0.3394
avg_logFC Tmbim4 [1]: 0.3693
avg_logFC Tmbim6 [1]: 0.3713
avg_logFC Ttc36 [1]: 0.5638
avg_logFC Ttpa [1]: 0.4431
avg_logFC Ttr [1]: 0.4225
avg_logFC Ugt2b5 [1]: 0.4388
avg_logFC Vnn3 [1]: 0.3008
avg_logFC Vtn [1]: 0.5228
avg_logFC Yipf3 [1]: 0.2785
Gstm3 pct.1 (A48 (APAP 48 h) hepatocytes): 0.279
Pim3 pct.1 (A48 (APAP 48 h) hepatocytes): 0.845
Gstm3 avg_logFC [2]: −0.6277
Pim3 avg_logFC [2]: 0.2884
avg_logFC Acsl1 (A48A96 vs untreated (UT)): 0.2563
avg_logFC Aldh3a2 (A48A96 vs untreated (UT)): 0.3079
avg_logFC Atp1a1 (A48A96 vs untreated (UT)): 0.2628
avg_logFC Atp5d (A48A96 vs untreated (UT)): 0.2501
avg_logFC C6 (A48A96 vs untreated (UT)): −0.267
avg_logFC Ces1e (A48A96 vs untreated (UT)): 0.2656
avg_logFC Ctsd (A48A96 vs untreated (UT)): 0.2579
avg_logFC Cyp4a12a (A48A96 vs untreated (UT)): −0.2771
avg_logFC Ech1 (A48A96 vs untreated (UT)): 0.2505
avg_logFC F5 (A48A96 vs untreated (UT)): 0.3006
avg_logFC F9 (A48A96 vs untreated (UT)): 0.2568
avg_logFC F12 (A48A96 vs untreated (UT)): 0.2567
avg_logFC Fcgrt (A48A96 vs untreated (UT)): 0.2585
avg_logFC Fn1 (A48A96 vs untreated (UT)): 0.2925
avg_logFC Ftl1 (A48A96 vs untreated (UT)): −0.2988
avg_logFC Gabarapl1 (A48A96 vs untreated (UT)): 0.2607
avg_logFC Gclm (A48A96 vs untreated (UT)): 0.2588
avg_logFC Glul (A48A96 vs untreated (UT)): 0.3795
avg_logFC Gm4076 (A48A96 vs untreated (UT)): −0.3083
avg_logFC Gm20594 (A48A96 vs untreated (UT)): −0.3566
avg_logFC Gsta2 (A48A96 vs untreated (UT)): 0.2522
avg_logFC Hadha (A48A96 vs untreated (UT)): 0.2509
avg_logFC Hal (A48A96 vs untreated (UT)): 0.2801
avg_logFC Hgfac (A48A96 vs untreated (UT)): 0.2522
avg_logFC Hsd17b4 (A48A96 vs untreated (UT)): 0.2532
avg_logFC Ifitm3 (A48A96 vs untreated (UT)): −0.2543
avg_logFC Inmt (A48A96 vs untreated (UT)): −0.2532
avg_logFC Lpgat1 (A48A96 vs untreated (UT)): 0.2576
avg_logFC Lpin1 (A48A96 vs untreated (UT)): 0.2775
avg_logFC Ndufb2 (A48A96 vs untreated (UT)): 0.2516
avg_logFC Park7 (A48A96 vs untreated (UT)): 0.2515
avg_logFC Pck1 (A48A96 vs untreated (UT)): 0.2719
avg_logFC Pipox (A48A96 vs untreated (UT)): 0.2725
avg_logFC Ppp2r5a (A48A96 vs untreated (UT)): 0.2509
avg_logFC Ptms (A48A96 vs untreated (UT)): 0.2678
avg_logFC Rarres1 (A48A96 vs untreated (UT)): −0.2919
avg_logFC Rpl32 (A48A96 vs untreated (UT)): −0.2847
avg_logFC Rpl41 (A48A96 vs untreated (UT)): −0.295
avg_logFC Sardh (A48A96 vs untreated (UT)): 0.2692
avg_logFC Sdhd (A48A96 vs untreated (UT)): 0.3208
avg_logFC Sds (A48A96 vs untreated (UT)): 0.2973
avg_logFC Sec61a1 (A48A96 vs untreated (UT)): 0.2637
avg_logFC Serpina12 (A48A96 vs untreated (UT)): −0.3247
avg_logFC Sfxn1 (A48A96 vs untreated (UT)): 0.3049
avg_logFC Slc2a2 (A48A96 vs untreated (UT)): 0.2723
avg_logFC Slc37a4 (A48A96 vs untreated (UT)): 0.2683
avg_logFC Tmem106b (A48A96 vs untreated (UT)): 0.2704
avg_logFC Ubb (A48A96 vs untreated (UT)): −0.2644
avg_logFC Ubxn4 (A48A96 vs untreated (UT)): 0.2503
avg_logFC Upb1 (A48A96 vs untreated (UT)): 0.2504
avg_logFC Usmg5 (A48A96 vs untreated (UT)): 0.2787
avg_logFC mmu-mir-6236 (A48A96 vs untreated (UT)): −0.4297
avg_logFC mt-Atp6 (A48A96 vs untreated (UT)): −0.3234
C6 A48logFC (A48 vs UT): −0.267
Glul A48logFC (A48 vs UT): 0.3795
Gm20594 A48logFC (A48 vs UT): −0.3566
Rps8 A48logFC (A48 vs UT): −0.2746
